# Patent US6989389B2, “Aryl ether substituted imidazoquinolines” (3M Innovative Properties Co., priority 2000, dated 2006)
# Structures can show the parent of a compound that is named as a salt. Where two headings read alike, the source gives them in different places.
# Test system: Peripheral blood mononuclear cells (PBMC)
# Test: Cytokine Induction in Human Cells (in vitro human blood cell system, IFN and TNF secreted into culture media)
# Type: cell-based
# Set-up: key to Lowest Effective Concentration (μM) Tumor Necrosis Factor / Lowest Effective Concentration (μM) Interferon: *: no induction was seen at any of the tested concentrations
# Conditions: 18 to 24 hours, tested 30-0.014 μM
# Source text: An in vitro human blood cell system is used to assess cytokine induction. Activity is based on the measurement of interferon and tumor necrosis factor (α) (IFN and TNF, respectively) secreted into culture media as described by Testerman et. al. In “Cytokine Induction by the Immunomodulators Imiquimod and S-27609”, Journal of Leukocyte Biology, 58, 365-372 (September, 1995).
# Whole blood from healthy human donors is collected by venipuncture into EDTA vacutainer tubes. Peripheral blood mononuclear cells (PBMC) are separated from whole blood by density gradient centrifugation using Histopaque®-1077. Blood is diluted 1:1 with Dulbecco's Phosphate Buffered Saline (DPBS) or Hank's Balanced Salts Solution (HBSS). The PBMC layer is collected and washed twice with DPBS or HBSS and resuspended at 4×10^6 cells/mL in RPMI complete. The PBMC suspension is added to 48 well flat bottom sterile tissue culture plates (Costar, Cambridge, Mass. or Becton Dickinson Labware, Lincoln Park, N.J.) containing an equal volume of RPMI complete media containing test compound.
# The compounds are solubilized in dimethyl sulfoxide (DMSO). The DMSO concentration should not exceed a final concentration of 1% for addition to the culture wells. The compounds are generally tested at concentrations ranging from 30-0.014 μM.
# The solution of test compound is added at 60 μM to the first well containing RPMI complete and serial 3 fold dilutions are made in the wells. The PBMC suspension is then added to the wells in an equal volume, bringing the test compound concentrations to the desired range (30-0.014 μM). The final concentration of PBMC suspension is 2×10^6 cells/mL. The plates are covered with sterile plastic lids, mixed gently and then incubated for 18 to 24 hours at 37° C. in a 5% carbon dioxide atmosphere.
# Following incubation the plates are centrifuged for 10 minutes at 1000 rpm (˜200×g) at 4° C. The cell-free culture supernatant is removed with a sterile polypropylene pipet and transferred to sterile polypropylene tubes. Samples are maintained at −30 to −70° C. until analysis. The samples are analyzed for interferon (α) by ELISA and for tumor necrosis factor (α) by ELISA or IGEN Assay.
# Interferon (α) concentration is determined by ELISA using a Human Multi-Species kit from PBL Biomedical Laboratories, New Brunswick, N.J. Results are expressed in pg/mL.
# Tumor necrosis factor (α) (TNF) concentration is determined using ELISA kits available from Biosource International, Camarillo, Calif. Alternately, the TNF concentration can be determined by Origen® M-Series Immunoassay and read on an IGEN M-8 analyzer from IGEN International, Gaithersburg, Md. The immunoassay uses a human TNF capture and detection antibody pair from Biosource International, Camarillo, Calif. Results are expressed in pg/mL.
# The table below lists the lowest concentration found to induce interferon and the lowest concentration found to induce tumor necrosis factor for each compound.
# [1] = Homo sapiens, PBMC, lowest concentration found to induce interferon (α), ELISA, read-out: Lowest Effective Concentration (μM) Interferon
# [2] = Homo sapiens, PBMC, lowest concentration found to induce tumor necrosis factor (α), ELISA or IGEN assay, read-out: Lowest Effective Concentration (μM) Tumor Necrosis Factor
# [3] = lowest concentration found to induce tumor necrosis factor (α), ELISA or IGEN assay
# [4] = lowest concentration found to induce interferon (α), ELISA
# [5] = lowest concentration found to induce interferon (α), ELISA, read-out: Lowest Effective Concentration (μM) Interferon
Compound,minimal effective concentration [1] [µM],Lowest Effective Concentration (μM) Tumor Necrosis Factor [3],also measured
"CC(C)c1ccccc1C#CCOCCn1cnc2c(N)nc3ccccc3c21 [Example 7, 1-(2-{[3-(2-Isopropylphenyl)-2-propynyl]oxy}ethyl)-1H-imidazo[4,5-c]quinolin-4-amine Hydrochloride]",1.11,,minimal effective concentration [2]: 0.37 µM
"Nc1nc2ccccc2c2c1ncn2CCOCCCc1ccc(-n2cccc2)cc1 [Example 11, 1-(2-{3-[4-(1H-1-Pyrrolyl)phenyl]propoxy}ethyl)-1H-imidazo[4,5-c]quinolin-4-amine trifluoroacetate]",1.11,*,
"Nc1nc2ccccc2c2c1ncn2CCOCCCc1cccc(C(=O)O)c1 [Example 12, 3-{3-[2-(4-Amino-1H-imidazo[4,5-c]quinolin-1-yl)ethoxy]propyl}benzoic acid bis(trifluoroacetate)]",10,*,
"Nc1nc2ccccc2c2c1ncn2CCOCCCc1ccccc1C(=O)O [Example 13, 2-{3-[2-(4-Amino-1H-imidazo[4,5-c]quinolin-1-yl)ethoxy]propyl}benzoic acid trifluoroacetate]",10,,minimal effective concentration [2]: 10 µM
"Nc1nc2ccccc2c2c1ncn2CCOCCCc1ccc(C(=O)O)cc1 [Example 14, 4-{3-[2-(4-Amino-1H-imidazo[4,5-c]quinolin-1-yl)ethoxy]propyl}benzoic acid trifluoroacetate]",10,,minimal effective concentration [2]: 10 µM
"CN(C)c1cccc(CCCOCCn2cnc3c(N)nc4ccccc4c32)c1 [Example 15, 1-(2-{3-[3-(Dimethylamino)phenyl]propoxy}ethyl)-1H-imidazo[4,5-c]quinolin-4-amine dihydrochloride]",0.12,*,
"CCOCc1nc2c(N)nc3ccccc3c2n1CCOCCCc1ccccc1 [Example 16, 2-(Ethoxymethyl)-1-[2-(3-phenylpropoxy)ethyl]-1H-imidazo[4,5-c]quinolin-4-amine Hydrochloride]",0.01,,minimal effective concentration [2]: 0.37 µM
"Nc1ccccc1CCCOCCn1cnc2c(N)nc3ccccc3c21 [Example 18, 1-{2-[3-(2-Aminophenyl)propoxy]ethyl}-1H-imidazo[4,5-c]quinolin-4-amine trifluoroacetate]",0.12,,minimal effective concentration [2]: 1.11 µM
"CCOCc1nc2c(N)nc3ccccc3c2n1CCOCCCCCCOCCCCc1ccccc1 [Example 20, 2-(Ethoxymethyl)-1-(2-{[6-(4-phenylbutoxy)hexyl]oxy}ethyl)-1H-imidazo[4,5-c]quinoline-4-amine]",,*,Lowest Effective Concentration (μM) Interferon [4]: *
"CCOCc1nc2c(N)nc3ccccc3c2n1CCOCCCOCc1ccccc1 [Example 21, 1-{2-[3-(Benzyloxy)propoxy]ethyl}-2-(ethoxymethyl)-1H-imidazo[4,5-c]quinolin-4-amine]",0.12,*,
"Nc1nc2ccccc2c2c1ncn2CCOCCCc1ccccc1 [Example 22, 1-[2-(3-Phenylpropoxy)ethyl]-1H-imidazo[4,5-c]quinolin-4-amine]",0.12,,minimal effective concentration [2]: 0.37 µM
CCC(COCc1ccccc1)n1cnc2c(N)nc3ccccc3c21 (stereo not drawn) [Example 24],0.12,*,
CCC(COCc1cccc(C)c1)n1cnc2c(N)nc3ccccc3c21 (stereo not drawn) [Example 25],0.12,*,
CCC(COCc1cccc(C(F)(F)F)c1)n1cnc2c(N)nc3ccccc3c21 (stereo not drawn) [Example 26],0.12,*,
CCC(COCc1ccc(Br)cc1)n1cnc2c(N)nc3ccccc3c21 (stereo not drawn) [Example 27],0.12,*,
Nc1nc2ccccc2c2c1ncn2CC(OCc1ccccc1)c1ccccc1 (stereo not drawn) [Example 28],10,*,
Nc1nc2ccccc2c2c1ncn2CC(OCc1ccc(Cl)cc1)c1ccccc1 (stereo not drawn) [Example 29],,*,Lowest Effective Concentration (μM) Interferon [4]: *
Nc1nc2ccccc2c2c1ncn2CC(OCc1cccc(Cl)c1)c1ccccc1 (stereo not drawn) [Example 30],3.33,*,

Compound,minimal effective concentration [1] [µM],Lowest Effective Concentration (μM) Tumor Necrosis Factor [3],also measured
Cc1ccc(COC(Cn2cnc3c(N)nc4ccccc4c32)c2ccccc2)cc1 (stereo not drawn) [Example 31],,*,Lowest Effective Concentration (μM) Interferon [4]: *
Cc1cccc(COC(Cn2cnc3c(N)nc4ccccc4c32)c2ccccc2)c1 (stereo not drawn) [Example 32],10,*,
CC(C)(Cn1cnc2c(N)nc3ccccc3c21)OCc1ccccc1 [Example 33],,*,Lowest Effective Concentration (μM) Interferon [4]: *
CC(C)(Cn1cnc2c(N)nc3ccccc3c21)OCc1ccc(Cl)cc1 [Example 34],,*,Lowest Effective Concentration (μM) Interferon [4]: *
CC(C)(Cn1cnc2c(N)nc3ccccc3c21)OCc1cccc(Cl)c1 [Example 35],,*,Lowest Effective Concentration (μM) Interferon [4]: *
Cc1ccc(COC(C)(C)Cn2cnc3c(N)nc4ccccc4c32)cc1 [Example 36],,*,Lowest Effective Concentration (μM) Interferon [4]: *
Cc1cccc(COC(C)(C)Cn2cnc3c(N)nc4ccccc4c32)c1 [Example 37],,*,Lowest Effective Concentration (μM) Interferon [4]: *
CC(C)(Cn1cnc2c(N)nc3ccccc3c21)OCc1ccccc1Cl [Example 38],10,*,
CC(C)(Cn1cnc2c(N)nc3ccccc3c21)OCc1ccccc1C#N [Example 39],1.11,*,
CCC(COCc1ccccc1Cl)n1cnc2c(N)nc3ccccc3c21 (stereo not drawn) [Example 40],0.12,*,
COC(=O)c1ccc(COCCn2cnc3c(N)nc4ccccc4c32)cc1 [Example 41],1.11,,minimal effective concentration [2]: 3.33 µM
Nc1nc2ccccc2c2c1ncn2CCOCc1ccccc1 [Example 42],0.37,*,
CCC(COCC(=O)OC)n1cnc2c(N)nc3ccccc3c21 (stereo not drawn) [Example 43],0.37,*,
CCC(COCc1cccc(OC(F)(F)F)c1)n1cnc2c(N)nc3ccccc3c21 (stereo not drawn) [Example 45],0.37,*,
CCC(COCc1ccc(C#N)cc1)n1cnc2c(N)nc3ccccc3c21 (stereo not drawn) [Example 46],,,"minimal effective concentration [5]: 0.01 µM; minimal effective concentration (lowest concentration found to induce tumor necrosis factor (α), ELISA or IGEN assay, read-out: Lowest Effective Concentration (μM) Tumor Necrosis Factor): 3.33 µM"
CCC(COCc1cccc(Cl)c1)n1cnc2c(N)nc3ccccc3c21 (stereo not drawn) [Example 47],,*,minimal effective concentration [5]: 0.12 µM
CCC(COCc1ccc(OC(F)(F)F)cc1)n1cnc2c(N)nc3ccccc3c21 (stereo not drawn) [Example 48],0.12,*,
CCC(COCc1ccc(C)cc1)n1cnc2c(N)nc3ccccc3c21 (stereo not drawn) [Example 49],0.04,*,
